This note sets out measurements from US20200236969A1, “METHODS AND COMPOSITIONS FOR IMPROVING GROWTH AND PERFORMANCE” (priority 2017, published 2020).

Experiment [1] has as its system turkey poults. Nature of the experiment: Pen trial of probiotic blends alone and with prebiotics: body weight, uniformity, feed conversion. It is filed as in vivo. The procedure:
Pen trial experiments were performed using the 4-strain probiotic blend and 10-strain (3 week) probiotic blend described in Example 2. The effect of each combination was assessed alone and in combination with one of two prebiotics, Lactose 1% in feed or 0.5 lbs SAFMANNAN per ton of feed (Phileo Lesaffre Animal Care, Marcq-En-Baroeul Cedex, France). The prebiotic was administered continuously in feed.
This Experiment started in December 2017 and lasted 15 weeks. Poults were housed in pens through 6 weeks of age then moved to a common area. They remained on experimental feed through 6 weeks; then were all given control feed. Probiotic inoculations were performed at day of hatch and 3 weeks of age.

Experiment [2] deals with day-of-hatch turkeys. The experiment in a line: Second caged trial: 4-strain combination vs FM-B11 and BMD, body weight. Type of experiment: in vivo, turkey. The text has this:
FIG. 5A and FIG. 5B show average body weights in grams (y-axis) for day-of-hatch turkeys treated with a 4-strain probiotic blend inoculation group, day-of-hatch turkeys treated with an existing commercial probiotic derived from chickens (FM-B11), and day-of-hatch turkeys treated with a low-dose antibiotic (bacitracin methylene disalicylate or BMD), as described in Example 2, compared to day-of-hatch turkeys treated with a saline negative control. FIG. 5A. Turkeys were weighed on day 0 (that is, day-of-hatch), day 3, day 6, and day 13. Error bars depict standard error of means. […] For each treatment group, eight replicate cages were used with 10 birds per cage (n=80 per treatment group).
A second trial was performed to repeat the 4-strain combination inoculation and compare it again with a negative saline control, an existing commercial probiotic derived from chickens (FM-B11), and a low-dose antibiotic (bacitracin methylene disalicylate or BMD) administered continuously at 50 g/ton in the feed. […] Results are shown in FIG. 5 and Table 5 and indicate that there is repeatability in the ability of this 4-strain combination to enhance turkey performance related to weight gain.

Regarding `OC[C@H]1O[C@@H](O[C@H]2[C@H](O)[C@@H](O)C(O)O[C@@H]2CO)[C@H](O)[C@@H](O)[C@H]1O` (stereo partly shown) [Lactose 1%, Lactose], the “Feed conversion ratio 0-2 weeks” value in experiment [1] (0-2 weeks of age) is 1.40. Moreover, the “Feed conversion ratio 0-6 weeks” value in experiment [1] (0-6 weeks of age) is on record as 1.71. Moreover, the “Total body weight average Day 0” value in experiment [1] (Day 0 (baseline), pen trial) is 65.0 grams. Moreover, the “Total body weight average Week 1” value in experiment [1] (Week 1, pen trial, probiotic at day of hatch and 3 weeks, prebiotic continuously in feed) is reported as 169.9 grams. Moreover, the “Total body weight average Week 2” value in experiment [1] (Week 2, pen trial) was determined as 350.7 grams. For the same compound, the “Total body weight average Week 3” value in experiment [1] (Week 3, pen trial) is recorded as 704.0 grams. For the same compound, in experiment [1] (Week 3 of age), the “Coefficient of variation as a measure of bird uniformity Week 3” value was 10.304. In addition, the “Total body weight average Week 6” value in experiment [1] (Week 6, pen trial) came to 2471.0 grams. Moreover, in experiment [1] (Week 6 of age), the “Coefficient of variation as a measure of bird uniformity Week 6” value came to 9.3181.

Turning to “bacitracin methylene disalicylate [BMD Antibiotic]”, the “Average body weight Day 3” value in experiment [2] (day 3) worked out at 76.8 g. In addition, the “Average body weight Day 6” value in experiment [2] (day 6) came out at 125.5 g. For the same compound, the “Average body weight Day 13” value in experiment [2] (day 13) was found to be 314.3 g. The “Average body weight Day 0” value in experiment [2] (day-of-hatch (baseline)) is given as 60.1 g.
